# Assay results: article PMC10504874 (Journal of medicinal chemistry, 2021)
# Like-named read-outs stand apart in the source and are kept apart here. Residues, ends and D or L forms follow the SMILES beside them. *: point of attachment. Cbz = O=C(OCc1ccccc1)*
# Tests used:
# T. b. brucei BSFs [1] = details: read-out: EC50 in T. b. brucei BSFs; cited from earlier work
# cruzain [2] = target: T1, cruzain (Trypanosoma cruzi, UniProt P25779); experiment: biochemical; details: read-out: Residence time τ=1/kobs
# [3] = Stability of prodrugs in buffer without esterase; format: physicochemical; details: buffer pH 7.5, over 3 h
# cruzain [4] = target: T1, cruzain; experiment: Cruzain inhibition, fluorogenic substrate Cbz-Phe-Arg-AMC time courses; format: biochemical
# [5] = Detection of aldehyde content using phenylhydrazine; format: physicochemical; details: 0.2 mM compound, 1 mM phenylhydrazine; for Reaction with excess phenylhydrazine (in words): 2 h; for kobs of phenylhydrazone formation: Abs 282 nm, pH 7.5 buffer lacking DTT
# [6] = Pharmacokinetic evaluation in mice by intravenous administration; format: in vivo; details: data not shown
# [7] = system: C2C12 murine cardiomyoblast cells; experiment: Toxicity against host cardiomyoblasts in the T. cruzi infection assay; format: cell-based; details: at up to 40 μM
# [8] = system: T. cruzi-infected cardiomyoblasts; experiment: T. cruzi-infected C2C12 murine cardiomyoblast assay; format: cell-based; details: Trypanosoma cruzi, C2C12, in Mus musculus, 48 h, read-out: T. cruzi-infected cardiomyoblasts EC50, C2C12 cells, T. cruzi Ca-I/72, 2 days, 0.02–40 μM
# T. b. brucei BSFs [9] = experiment: Axenic cultures of T. b. brucei bloodstream forms, growth inhibition; details: Trypanosoma brucei, read-out: T. b. brucei BSFs EC50
# human cathepsin L = human cathepsin L (Homo sapiens, UniProt P07711); experiment: Human cathepsin L inhibition; format: biochemical
# Chain of human cathepsin L (P07711 114-333): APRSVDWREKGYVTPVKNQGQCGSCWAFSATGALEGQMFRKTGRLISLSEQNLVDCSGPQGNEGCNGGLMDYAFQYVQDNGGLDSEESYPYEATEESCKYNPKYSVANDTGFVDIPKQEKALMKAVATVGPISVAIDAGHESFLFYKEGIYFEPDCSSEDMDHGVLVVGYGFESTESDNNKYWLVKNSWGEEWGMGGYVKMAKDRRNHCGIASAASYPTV
# T1 sequence (P25779 123-337 limits assumed): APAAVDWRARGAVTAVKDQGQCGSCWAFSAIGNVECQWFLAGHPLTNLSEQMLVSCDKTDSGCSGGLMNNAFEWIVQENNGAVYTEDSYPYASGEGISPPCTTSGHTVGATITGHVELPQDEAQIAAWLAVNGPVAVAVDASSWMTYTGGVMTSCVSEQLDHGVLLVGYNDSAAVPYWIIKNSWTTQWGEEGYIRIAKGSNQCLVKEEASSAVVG
compound,measurement,setting,value
N=C(N)c1ccc(/N=N/Nc2ccc(C(=N)N)cc2)cc1 [diminazene],EC50,T. b. brucei BSFs [1],990 nM
"Cc1ccc2c(c1)C[C@H](NC(=O)[C@H](Cc1ccccc1)NC(=O)OCc1ccccc1)C(O)O2 (stereo partly drawn) [Compound 7, Benzyl ((2S)-1-(((3S)-2-hydroxy-6-methylchroman-3-yl)amino)-1-oxo-3-phenylpropan-2-yl)carbamate]",residence time,cruzain [2],2.5 to 5.5 min
"CC(=O)OC1Oc2ccccc2C[C@@H]1NC(=O)[C@H](Cc1ccccc1)NC(=O)N1CCN(C)CC1 (stereo partly drawn) [Compound 13, (3S)-3-((S)-2-(4-methylpiperazine-1-carboxamido)-3-phenylpropanamido)chroman-2-yl acetate]",Degradation in buffer without esterase,[3],about 10%
"CCOC1Oc2ccccc2C[C@@H]1NC(=O)[C@H](Cc1ccccc1)NC(=O)N1CCN(C)CC1 (stereo partly drawn) [Compound 16, N-((2S)-1-(((3S)-2-ethoxychroman-3-yl)amino)-1-oxo-3-phenylpropan-2-yl)-4-methylpiperazine-1-carboxamide]",Cruzain inhibition by prodrugs (in words),cruzain [4],did not inhibit cruzain
O=C(N[C@@H](Cc1ccccc1)C(=O)N[C@H]1Cc2cc(F)ccc2OC1O)OCc1ccccc1 (some centres unmarked) [Compound 9],residence time,cruzain [2],2.5 to 5.5 min
"CN1CCN(C(=O)N[C@@H](Cc2ccccc2)C(=O)N[C@@H]2Cc3ccccc3C[C@H]2O)CC1 (mixture of isomers) [Compound 3, N-((S)-1-(((2S,3S)-3-hydroxy-1,2,3,4-tetrahydronaphthalen-2-yl)amino)-1-oxo-3-phenylpropan-2-yl)-4-methylpiperazine-1-carboxamide and N-((S)-1-(((2R,3R)-3-hydroxy-1,2,3,4-tetrahydronaphthalen-2-yl)amino)-1-oxo-3-phenylpropan-2-yl)-4-methylpiperazine-1-carboxamide]",Cruzain inhibition (in words),cruzain [4]; at ≤100 μM,did not inhibit cruzain
CC(C)OC1Oc2ccccc2C[C@@H]1NC(=O)[C@H](Cc1ccccc1)NC(=O)N1CCN(C)CC1 (some centres unmarked) [Compound 17],Cruzain inhibition by prodrugs (in words),cruzain [4],did not inhibit cruzain
COc1ccc2c(c1)C[C@H](NC(=O)[C@H](Cc1ccccc1)NC(=O)OCc1ccccc1)C(O)O2 (some centres unmarked) [Compound 6],residence time,cruzain [2],2.5 to 5.5 min
same,Fold lower activity than 7,cruzain [4],over 3 fold
same,Fold more weakly binding than un-substituted SMAI 2,cruzain [4],7 fold
O=C(N[C@@H](Cc1ccccc1)C(=O)N[C@H]1Cc2cc(Cl)ccc2OC1O)OCc1ccccc1 (some centres unmarked) [Compound 8],residence time,cruzain [2],2.5 to 5.5 min
CN1CCN(C(=O)N[C@@H](Cc2ccccc2)C(=O)N[C@H]2Cc3ccccc3OC2O)CC1 (some centres unmarked) [Compound 12],residence time,cruzain [2],26 min
same,Reaction with excess phenylhydrazine (in words),[5],remained intact after 2 h
same,kobs of phenylhydrazone formation,[5],negligible
same,Half-life in mice (in words),[6],short half-life
"O=C[C@H](Cc1ccccc1)NC(=O)[C@H](Cc1ccccc1)NC(=O)OCc1ccccc1 [Compound 1, Cbz-Phe-Phe-H] (Cbz-Phe-Phe-aldehyde)",residence time,cruzain [2],52 min
same,Toxicity against the host cardiomyoblasts,[7],significant cytotoxicity
same,"k4, rate constant for conversion of EI* back to EI","cruzain [4]; from replot of kobs vs [I], eq 3",(7.6±0.6)×10^–4 s^–1
same,EC50,[8],400 nM
COC(=O)c1ccc2c(c1)C[C@H](NC(=O)[C@H](Cc1ccccc1)NC(=O)OCc1ccccc1)C(O)O2 (some centres unmarked) [Compound 10],residence time,cruzain [2],2.5 to 5.5 min
same,Fold increase in potency versus 2,cruzain [4],3 fold
"CN1CCN(C(=O)N[C@@H](Cc2ccccc2)C(=O)N[C@H](C=O)CCc2ccccc2)CC1 [Compound 11, 4-Methyl-N-((S)-1-oxo-1-(((S)-1-oxo-4-phenylbutan-2-yl)amino)-3-phenylpropan-2-yl)piperazine-1-carboxamide]",Reaction with excess phenylhydrazine (in words),[5],completely converted to phenylhydrazone
same,kobs of phenylhydrazone formation,[5],(2.61±0.05)×10^–4 s^–1
"CN1CCN(C(=O)N[C@@H](Cc2ccccc2)C(=O)N[C@H](/C=C/S(=O)(=O)c2ccccc2)CCc2ccccc2)CC1 [K777, reference compound]",Toxicity against the host cardiomyoblasts,[7],significant cytotoxicity
same,EC50,T. b. brucei BSFs [9],90 ± 60 nM
COc1ccccc1C[C@@H](C=O)NC(=O)[C@H](Cc1ccccc1)NCC(=O)OCc1ccccc1 [Compound 5],Fold less active than aldehyde 1 versus cruzain,cruzain [4],50 fold
"O=C(N[C@@H](Cc1ccccc1)C(=O)N[C@H]1Cc2ccccc2OC1O)OCc1ccccc1 (stereo partly drawn) [Compound 2, Cbz-Phe-o-Tyr-H]",residence time,cruzain [2],2.5 to 5.5 min
same,Ratio Ki*(SMAI)/Ki*(free aldehyde counterpart),"cruzain [4]; Ki*(12)/Ki*(11), Ki*(2)/Ki*(1)",110
CC(C)[C@H](NC(=O)OCc1ccccc1)C(=O)N[C@@H](CC1CCCCC1)C(=O)N[C@H](C=O)Cc1ccc[nH]c1=O [Compound 18],Inhibition of human cathepsin L (in words),human cathepsin L,inhibited human cathepsin L
